Experimental data from patent US8691865B2 (AbbVie Inc., priority 2008, dated 2014).

The molecules below were run against human Cav2.2 (Homo sapiens, UniProt Q00975) (assay: Assessment of calcium channel activity using FLIPR (Ca2+ influx in IMR32 cells)). Details: not given.
human Cav2.2, sequence (Q00975 whole entry): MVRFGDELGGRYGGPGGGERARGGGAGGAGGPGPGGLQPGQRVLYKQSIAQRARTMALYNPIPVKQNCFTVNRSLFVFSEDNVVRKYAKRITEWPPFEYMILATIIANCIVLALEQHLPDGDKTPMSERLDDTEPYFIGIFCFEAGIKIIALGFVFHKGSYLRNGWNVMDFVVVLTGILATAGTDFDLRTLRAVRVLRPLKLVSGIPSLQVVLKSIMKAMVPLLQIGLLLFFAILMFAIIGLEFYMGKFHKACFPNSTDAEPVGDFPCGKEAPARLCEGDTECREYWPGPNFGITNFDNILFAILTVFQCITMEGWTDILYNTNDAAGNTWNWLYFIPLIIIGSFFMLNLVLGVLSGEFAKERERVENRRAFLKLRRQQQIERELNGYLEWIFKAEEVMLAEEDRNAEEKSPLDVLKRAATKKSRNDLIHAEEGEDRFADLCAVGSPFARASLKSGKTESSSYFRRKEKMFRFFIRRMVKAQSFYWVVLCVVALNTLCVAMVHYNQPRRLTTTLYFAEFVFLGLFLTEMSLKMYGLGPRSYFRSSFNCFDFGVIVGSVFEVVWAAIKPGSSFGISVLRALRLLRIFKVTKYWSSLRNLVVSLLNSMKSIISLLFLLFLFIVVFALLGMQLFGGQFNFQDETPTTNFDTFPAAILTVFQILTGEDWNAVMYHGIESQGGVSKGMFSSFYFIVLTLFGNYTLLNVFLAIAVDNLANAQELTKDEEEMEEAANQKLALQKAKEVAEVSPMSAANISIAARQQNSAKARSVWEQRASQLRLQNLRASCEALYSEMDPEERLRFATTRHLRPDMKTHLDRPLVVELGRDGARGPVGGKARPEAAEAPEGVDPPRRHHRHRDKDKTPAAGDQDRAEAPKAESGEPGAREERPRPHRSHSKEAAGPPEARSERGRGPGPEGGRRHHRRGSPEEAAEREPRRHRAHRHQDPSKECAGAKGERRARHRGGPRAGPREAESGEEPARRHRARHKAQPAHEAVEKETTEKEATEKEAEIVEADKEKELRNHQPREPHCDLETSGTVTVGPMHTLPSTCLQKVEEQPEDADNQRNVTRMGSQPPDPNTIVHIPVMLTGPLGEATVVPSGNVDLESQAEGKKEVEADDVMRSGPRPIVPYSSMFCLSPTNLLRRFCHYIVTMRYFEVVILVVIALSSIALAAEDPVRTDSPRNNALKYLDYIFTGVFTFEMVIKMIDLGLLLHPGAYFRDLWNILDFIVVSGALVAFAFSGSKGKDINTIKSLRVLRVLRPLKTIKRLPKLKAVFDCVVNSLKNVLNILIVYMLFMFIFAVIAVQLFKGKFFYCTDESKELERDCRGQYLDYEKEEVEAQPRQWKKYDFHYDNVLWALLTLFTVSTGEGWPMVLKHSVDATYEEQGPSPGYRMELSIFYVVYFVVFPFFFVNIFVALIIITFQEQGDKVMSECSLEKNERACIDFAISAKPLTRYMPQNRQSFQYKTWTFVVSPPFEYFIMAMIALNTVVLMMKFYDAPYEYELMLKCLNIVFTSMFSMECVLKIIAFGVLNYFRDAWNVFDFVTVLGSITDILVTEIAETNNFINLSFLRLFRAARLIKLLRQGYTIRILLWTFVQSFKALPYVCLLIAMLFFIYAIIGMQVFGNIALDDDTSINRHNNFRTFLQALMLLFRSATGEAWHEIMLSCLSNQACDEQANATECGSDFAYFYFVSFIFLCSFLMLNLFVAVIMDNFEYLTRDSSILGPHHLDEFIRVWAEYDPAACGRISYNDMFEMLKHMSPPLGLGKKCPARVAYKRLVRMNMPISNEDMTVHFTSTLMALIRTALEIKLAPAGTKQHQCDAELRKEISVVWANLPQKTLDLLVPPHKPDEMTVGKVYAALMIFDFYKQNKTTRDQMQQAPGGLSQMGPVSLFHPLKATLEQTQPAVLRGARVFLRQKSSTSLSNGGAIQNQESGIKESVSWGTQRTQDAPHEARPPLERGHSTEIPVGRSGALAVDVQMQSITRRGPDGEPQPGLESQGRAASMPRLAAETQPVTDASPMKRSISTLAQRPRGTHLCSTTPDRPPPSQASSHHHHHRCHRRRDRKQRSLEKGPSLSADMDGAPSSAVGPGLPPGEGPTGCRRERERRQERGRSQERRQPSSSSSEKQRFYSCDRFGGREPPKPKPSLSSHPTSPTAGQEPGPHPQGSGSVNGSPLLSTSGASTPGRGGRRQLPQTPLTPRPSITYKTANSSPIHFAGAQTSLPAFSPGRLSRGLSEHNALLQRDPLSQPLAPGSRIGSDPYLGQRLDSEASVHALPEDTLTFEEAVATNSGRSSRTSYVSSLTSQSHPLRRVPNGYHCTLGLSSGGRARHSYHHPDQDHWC
human Cav2.2, sequence (P54289 25-956 partner limits assumed): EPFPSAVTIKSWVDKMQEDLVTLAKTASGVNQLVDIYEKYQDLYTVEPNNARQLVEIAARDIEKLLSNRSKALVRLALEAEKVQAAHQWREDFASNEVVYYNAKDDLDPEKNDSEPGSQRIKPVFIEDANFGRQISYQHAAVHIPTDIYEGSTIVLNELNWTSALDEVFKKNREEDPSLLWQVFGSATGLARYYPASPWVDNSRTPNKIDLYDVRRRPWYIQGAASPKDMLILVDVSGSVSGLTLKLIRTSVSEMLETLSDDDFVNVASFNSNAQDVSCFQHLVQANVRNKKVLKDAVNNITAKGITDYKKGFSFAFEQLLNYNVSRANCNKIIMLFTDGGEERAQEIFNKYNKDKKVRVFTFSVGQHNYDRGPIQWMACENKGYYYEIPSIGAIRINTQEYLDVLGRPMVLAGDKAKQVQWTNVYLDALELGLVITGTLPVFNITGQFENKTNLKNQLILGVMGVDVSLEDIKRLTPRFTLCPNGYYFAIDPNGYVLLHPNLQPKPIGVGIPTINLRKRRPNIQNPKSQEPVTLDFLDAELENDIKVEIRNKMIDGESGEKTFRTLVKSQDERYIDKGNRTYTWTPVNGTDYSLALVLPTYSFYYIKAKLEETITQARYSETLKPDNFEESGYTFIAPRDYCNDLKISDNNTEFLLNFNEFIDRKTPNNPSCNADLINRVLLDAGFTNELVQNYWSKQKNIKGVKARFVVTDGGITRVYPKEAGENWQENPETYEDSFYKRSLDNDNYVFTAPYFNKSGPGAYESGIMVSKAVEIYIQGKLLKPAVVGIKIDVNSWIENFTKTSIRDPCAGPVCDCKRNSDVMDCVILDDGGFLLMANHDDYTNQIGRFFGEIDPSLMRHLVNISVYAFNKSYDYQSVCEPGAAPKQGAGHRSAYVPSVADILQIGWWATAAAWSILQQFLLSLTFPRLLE
human Cav2.2, sequence (P54289 957-1103 partner limits assumed): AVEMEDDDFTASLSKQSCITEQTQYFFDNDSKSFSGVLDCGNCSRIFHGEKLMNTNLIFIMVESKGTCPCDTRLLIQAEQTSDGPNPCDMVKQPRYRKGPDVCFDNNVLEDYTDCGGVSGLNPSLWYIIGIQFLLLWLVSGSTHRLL
human Cav2.2, sequence (P54284 whole entry partner): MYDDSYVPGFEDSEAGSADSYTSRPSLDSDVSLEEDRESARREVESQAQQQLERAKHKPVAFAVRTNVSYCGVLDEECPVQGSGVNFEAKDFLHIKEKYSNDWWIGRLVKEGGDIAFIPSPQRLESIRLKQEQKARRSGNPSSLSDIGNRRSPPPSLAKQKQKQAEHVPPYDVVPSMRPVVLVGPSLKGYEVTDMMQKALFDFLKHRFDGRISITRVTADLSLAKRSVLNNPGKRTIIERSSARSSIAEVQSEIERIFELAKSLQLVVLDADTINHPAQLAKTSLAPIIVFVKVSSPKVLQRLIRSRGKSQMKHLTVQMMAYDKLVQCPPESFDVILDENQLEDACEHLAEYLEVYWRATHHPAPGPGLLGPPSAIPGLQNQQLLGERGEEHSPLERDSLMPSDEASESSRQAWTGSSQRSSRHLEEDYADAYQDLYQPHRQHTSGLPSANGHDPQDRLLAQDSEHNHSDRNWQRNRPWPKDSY
Assay type: cell-based
Method in brief: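 Human neuroblastoma IMR32 cells were seeded at 1−1.2×10^5 cells/well and cultured 48 h at 37 °C before FLIPR calcium influx measurement. Percent inhibition at each concentration was calculated against the no-inhibitor signal, and IC50 came from sigmoidal dose-response fits.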
In the case of CN[C@@H](CC(C)C)C(=O)N[C@@H]1CC[C@H]2CN(S(=O)(=O)c3cccc(C(F)(F)F)c3)C[C@H]21 [Example 182, N^2-methyl-N^1-((3aS,4R,6aR)-2-{[3-(trifluoromethyl)phenyl]sulfonyl}octahydrocyclopenta[c]pyrrol-4-yl)-L-leucinamide], the IC50 is reported as 1.45 µM.
CC(C)C(C(=O)N[C@H]1CC[C@@H]2CN(CCCc3ccccc3)C[C@@H]21)c1ccccc1 (stereo partly drawn) [Example 105, 3-methyl-2-phenyl-N-[(3aR,4S,6aS)-2-(3-phenylpropyl)octahydrocyclopenta[c]pyrrol-4-yl]butanamide] showed an IC50 of 1.21 µM.
For FC(F)(F)c1cccc(N2C[C@H]3CC[C@H](NCc4c[nH]nc4-c4ccc(Cl)cc4)[C@H]3C2)n1 [Example 666, (3aR,4S,6aS)-N-{[3-(4-chlorophenyl)-1H-pyrazol-4-yl]methyl}-2-[6-(trifluoromethyl)pyridin-2-yl]octahydrocyclopenta[c]pyrrol-4-amine], the IC50 was 1.37 µM.
CN[C@H](CC(C)C)C(=O)N[C@H]1CC[C@@H]2CN(c3ccc(C(F)(F)F)cc3)C[C@@H]21 [Example 760, N^2-methyl-N-{(3aR,4S,6aS)-2-[4-(trifluoromethyl)phenyl]octahydrocyclopenta[c]pyrrol-4-yl}-D-leucinamide] was tested, and the IC50 was 2.32 µM.
O=C(N[C@H]1CC[C@@H]2CN(c3ccc(C(F)(F)F)cn3)C[C@@H]21)[C@@H]1Cc2ccccc2N1 [Example 604, (2S)-N-{(3aR,4S,6aS)-2-[5-(trifluoromethyl)pyridin-2-yl]octahydrocyclopenta[c]pyrrol-4-yl}indoline-2-carboxamide] was tested, and the IC50 was 2.78 µM.
Work on O=C(N[C@H]1CC[C@@H]2CN(c3cccc(C(F)(F)F)n3)C[C@@H]21)c1ccc2ccccc2n1 [Example 569, N-{(3aR,4S,6aS)-2-[6-(trifluoromethyl)pyridin-2-yl]octahydrocyclopenta[c]pyrrol-4-yl}quinoline-2-carboxamide] yielded an IC50 of 0.98 µM.
O=C(N[C@H]1CC[C@H]2CN(Cc3ccccc3)C[C@H]21)C(c1ccccc1)C1CCCC1 (relative stereo) [Example 7, N-[(3aS*,4S*,6aR*)-2-benzyloctahydrocyclopenta[c]pyrrol-4-yl]-2-cyclopentyl-2-phenylacetamide] was tested, and the IC50 was 0.92 µM.
O=C(N[C@H]1CC[C@@H]2CN(c3cccc(C(F)(F)F)n3)C[C@@H]21)c1ccccc1O [Example 562, 2-hydroxy-N-{(3aR,4S,6aS)-2-[6-(trifluoromethyl)pyridin-2-yl]octahydrocyclopenta[c]pyrrol-4-yl}benzamide] was tested, and the IC50 was 1.69 µM.
CCC[C@H](NC)C(=O)N[C@H]1CC[C@@H]2CN(c3ccc(OC(F)(F)F)cc3)C[C@@H]21 [Example 719, N^2-methyl-N-{(3aR,4S,6aS)-2-[4-(trifluoromethoxy)phenyl]octahydrocyclopenta[c]pyrrol-4-yl}-L-norvalinamide] showed an IC50 of 10.6 µM.
CC[C@H](C)[C@H](NC)C(=O)N[C@H]1CC[C@@H]2CN(Cc3ccccc3)C[C@@H]21 [Example 353, N^1-[(3aR,4S,6aS)-2-benzyloctahydrocyclopenta[c]pyrrol-4-yl]-N^2-methyl-L-isoleucinamide] showed an IC50 of over 30 µM.
Work on COc1cccc(N2C[C@H]3CC[C@H](NC(=O)[C@@H]4C[C@@H](F)CN4)[C@H]3C2)c1 [Example 645, (4R)-4-fluoro-N-[(3aR,4S,6aS)-2-(3-methoxyphenyl)octahydrocyclopenta[c]pyrrol-4-yl]-L-prolinamide] yielded an IC50 of over 30 µM.
N#Cc1cccc(N2C[C@H]3CC[C@H](NC(=O)[C@@H]4C[C@@H](F)CN4)[C@H]3C2)c1 [Example 632, (4R)-N-[(3aR,4S,6aS)-2-(3-cyanophenyl)octahydrocyclopenta[c]pyrrol-4-yl]-4-fluoro-L-prolinamide] showed an IC50 of 18.9 µM.
O=C(N[C@H]1CC[C@@H]2CN(c3cccc(C(F)(F)F)c3)C[C@@H]21)[C@@H]1C[C@@H](F)CN1 [Example 617, (4R)-4-fluoro-N-{(3aR,4S,6aS)-2-[3-(trifluoromethyl)phenyl]octahydrocyclopenta[c]pyrrol-4-yl}-L-prolinamide] showed an IC50 of 2.57 µM.
With COc1ccccc1N1C[C@H]2CC[C@H](NC(=O)[C@@H]3C[C@@H](F)CN3)[C@H]2C1 [Example 662, (4R)-4-fluoro-N-[(3aR,4S,6aS)-2-(2-methoxyphenyl)octahydrocyclopenta[c]pyrrol-4-yl]-L-prolinamide] the IC50 was over 30 µM.
In the case of Cc1cccc(N2C[C@H]3CC[C@H](NC(=O)[C@@H]4C[C@@H](F)CN4)[C@H]3C2)c1 [Example 642, (4R)-4-fluoro-N-[(3aR,4S,6aS)-2-(3-methylphenyl)octahydrocyclopenta[c]pyrrol-4-yl]-L-prolinamide], the IC50 is reported as 15.6 µM.
With Fc1ccc2nc(CN[C@H]3CC[C@@H]4CN(c5cccc(C(F)(F)F)n5)C[C@@H]43)[nH]c2c1 [Example 691, (3aR,4S,6aS)-N-[(6-fluoro-1H-benzimidazol-2-yl)methyl]-2-[6-(trifluoromethyl)pyridin-2-yl]octahydrocyclopenta[c]pyrrol-4-amine] the IC50 was 0.61 µM.
For CN[C@@H](C)C(=O)N[C@H]1CC[C@@H]2CN(c3ccc(C(F)(F)F)cc3)C[C@@H]21 [Example 753, N^2-methyl-N-{(3aR,4S,6aS)-2-[4-(trifluoromethyl)phenyl]octahydrocyclopenta[c]pyrrol-4-yl}-L-alaninamide], the IC50 was over 9.5 µM.
With Fc1ccc2[nH]c(CN[C@H]3CC[C@@H]4CN(c5cccc(OC(F)(F)F)c5)C[C@@H]43)cc2c1 [Example 715, (3aR,4S,6aS)-N-[(5-fluoro-1H-indol-2-yl)methyl]-2-[3-(trifluoromethoxy)phenyl]octahydrocyclopenta[c]pyrrol-4-amine] the IC50 was 2.78 µM.
Work on CN[C@@H](CC(C)C)C(=O)N[C@H]1CC[C@@H]2CN(c3cccc(F)c3F)C[C@@H]21 [Example 730, N-[(3aR,4S,6aS)-2-(2,3-difluorophenyl)octahydrocyclopenta[c]pyrrol-4-yl]-N^2-methyl-L-leucinamide] yielded an IC50 of 1.26 µM.
For O=C(N[C@H]1CC[C@@H]2CN(Cc3cccc(C(F)(F)F)c3)C[C@@H]21)C(C1CCCCC1)C1CCCCC1 [Example 156, 2,2-dicyclohexyl-N-{(3aR,4S,6aS)-2-[3-(trifluoromethyl)benzyl]octahydrocyclopenta[c]pyrrol-4-yl}acetamide], the IC50 was 0.76 µM.
For COc1ccc2[nH]c(CN[C@H]3CC[C@@H]4CN(c5cccc(C(F)(F)F)n5)C[C@@H]43)c(C)c2c1 [Example 668, (3aR,4S,6aS)-N-[(5-methoxy-3-methyl-1H-indol-2-yl)methyl]-2-[6-(trifluoromethyl)pyridin-2-yl]octahydrocyclopenta[c]pyrrol-4-amine], the IC50 was 1.55 µM.
For CCC[C@H](NC)C(=O)N(C)[C@H]1CC[C@@H]2CN(S(=O)(=O)c3ccc(C(F)(F)F)cc3)C[C@@H]21 [Example 438, N^1,N^2-dimethyl-N^1-((3aR,4S,6aS)-2-{[4-(trifluoromethyl)phenyl]sulfonyl}octahydrocyclopenta[c]pyrrol-4-yl)-L-norvalinamide], the IC50 was 5.7 µM.

Same assay, conditions: read-out: IC50 (μM) or percent inhibition (* indicates 3 minute incubation, otherwise 60 minute); IC50; 60 minute pre-incubation with compound; IMR32 cells, 80 mM KCl depolarization
In the case of CC(C)C[C@H](NS(C)(=O)=O)C(=O)N[C@@H]1CC[C@H]2CN(Cc3cccc(C(F)(F)F)c3)C[C@H]21 [Example 170, N^2-(methylsulfonyl)-N^1-{(3aS,4R,6aR)-2-[3-(trifluoromethyl)benzyl]octahydrocyclopenta[c]pyrrol-4-yl}-L-leucinamide], the IC50 is reported as 4.55 µM.
Molecule CCN(CC)[C@H]1CC[C@@H]2CN(S(=O)(=O)c3ccc(C(F)(F)F)cc3Cl)C[C@@H]21 [Example 294, (3aR,4S,6aS)-2-{[2-chloro-4-(trifluoromethyl)phenyl]sulfonyl}-N,N-diethyloctahydrocyclopenta[c]pyrrol-4-amine] has an IC50 of 7.8 µM.
For CC(C)C[C@@H](C(=O)N[C@H]1CC[C@H]2CN(Cc3ccccc3)C[C@H]21)N(C)C(=O)OC(C)(C)C [Example 239, tert-butyl(S)-1-((3aS,4S,6aR)-2-benzyloctahydrocyclopenta[c]pyrrol-4-ylamino)-4-methyl-1-oxopentan-2-yl(methyl)carbamate], the IC50 was 3.32 µM.
CC(C)C[C@@H](C(=O)N[C@@H]1CC[C@H]2CNC[C@H]21)N(C)C(=O)OC(C)(C)C [Example 349, tert-butyl methyl((S)-4-methyl-1-((3aS,4R,6aR)-octahydrocyclopenta[c]pyrrol-4-ylamino)-1-oxopentan-2-yl)carbamate] showed an IC50 of 17.6 µM.
Work on CC(C)C[C@H](NS(=O)(=O)CC(C)C)C(=O)N[C@@H]1CC[C@H]2CN(Cc3cccc(C(F)(F)F)c3)C[C@H]21 [Example 173, N^2-(isobutylsulfonyl)-N^1-{(3aS,4R,6aR)-2-[3-(trifluoromethyl)benzyl]octahydrocyclopenta[c]pyrrol-4-yl}-L-leucinamide] yielded an IC50 of 1.81 µM.
With CCC[C@H](NC)C(=O)N[C@H]1CC[C@@H]2CN(S(=O)(=O)c3ccc(C(F)(F)F)cc3)C[C@@H]21 [Example 405, N^2-methyl-N^1-((3aR,4S,6aS)-2-{[4-(trifluoromethyl)phenyl]sulfonyl}octahydrocyclopenta[c]pyrrol-4-yl)-L-norvalinamide] the IC50 was 3.83 µM.
Work on CC(C)(C)C(C(=O)N[C@H]1CC[C@@H]2CN(Cc3ccccc3)C[C@@H]21)c1ccccc1 (stereo partly drawn) [Example 52, N-[(3aR,4S,6aS)-2-benzyloctahydrocyclopenta[c]pyrrol-4-yl]-3,3-dimethyl-2-phenylbutanamide] yielded an IC50 of 3.36 µM.
CC(C)C[C@@H](C(=O)N[C@H]1CC[C@H]2CN(Cc3cccc(C(F)(F)F)c3)C[C@H]21)N(C)C [Example 509, N^2,N^2-dimethyl-N^1-{(3aS,4S,6aR)-2-[3-(trifluoromethyl)benzyl]octahydrocyclopenta[c]pyrrol-4-yl}-L-leucinamide] was tested, and the IC50 was 4.55 µM.
CC(C)(C)[C@H](C(=O)N[C@@H]1CC[C@H]2CN(Cc3ccccc3)C[C@H]21)c1ccccc1 [Example 31, (2S)-N-[(3aS,4R,6aR)-2-benzyloctahydrocyclopenta[c]pyrrol-4-yl]-3,3-dimethyl-2-phenylbutanamide] gave an IC50 of 1.65 µM.
For Cc1ccc(CN2C[C@@H]3CC[C@H](NC(=O)C(C4CCCCC4)C4CCCCC4)[C@@H]3C2)cc1 [Example 62, 2,2-dicyclohexyl-N-[(3aS,4S,6aR)-2-(4-methylbenzyl)octahydrocyclopenta[c]pyrrol-4-yl]acetamide], the IC50 was 1.64 µM.
